In general, IC50 refers to the concentration at which inhibition is half-maximal. High values mean weaker potency in that assay, low ones greater potency in that assay.

24 compounds from US20070123546A1, “2-amino-7,8-dihydro-6H-pyrido[4,3-d]pyrimidin-5-ones” (Chiron Corporation, priority 2005, published 2007) can be followed below.

Structures are written as SMILES.

The target in one experiment is His-tagged N-terminal ATP binding domain (amino acid residues 9-236) of HSP90α (Homo sapiens, UniProt P07900). Kind of experiment: HSP90 inhibitor binding potency: TRF competition binding assay. Particulars: Table 1; competition with biotinylated radicicol. Summed up:
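Competition against biotinylated radicicol for binding to the His-tagged 9-236 ATP domain of HSP90α: 2 h, room temperature, HEPES/MgCl2/KCl/BSA buffer. Streptavidin capture, then europium-labeled anti-His antibody and enhancement solution; europium counts give IC50.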
Regarding `Cc1nc(N)nc2c1C(=O)NC(c1ccc(F)cc1-c1ccoc1)C2` (stereo not drawn) [Compound 41, 2-Amino-7-(4-fluoro-2-furan-3-yl-phenyl)-4-methyl-7,8-dihydro-6H-pyrido[4,3-d]pyrimidin-5-one], the IC50 is under 10 µM.
Still for that read-out and setting: with `COc1ncccc1-c1ccccc1C1Cc2nc(N)nc(C)c2C(=O)N1` (stereo not drawn) [Compound 13, 2-Amino-7-[2-(2-methoxy-pyridin-3-yl)-phenyl]-4-methyl-7,8-dihydro-6H-pyrido[4,3-d]pyrimidin-5-one] the figure was under 10 µM.
Still for that read-out and setting: with `Cc1nc(N)nc2c1C(=O)NC(c1ccc(F)cc1-c1cn[nH]c1)C2` (stereo not drawn) [Compound 31, 2-Amino-7-[4-fluoro-2-(1H-pyrazol-4-yl)-phenyl]-4-methyl-7,8-dihydro-6H-pyrido[4,3-d]pyrimidin-5-one] the figure was over 10 µM; with `Cc1nc(N)nc2c1C(=O)N[C@@H](c1ccc(F)cc1-c1cccnc1F)C2` [Compound 3, (R)-2-Amino-7-[4-fluoro-2-(2-fluoro-pyridin-3-yl)-phenyl]-4-methyl-7,8-dihydro-6H-pyrido[4,3-d]pyrimidin-5-one], under 10 µM.

Staying with this experiment, now noted: Table 2; competition with biotinylated radicicol.
In turn, `CCc1nc(N)nc2c1C(=O)N[C@@H](c1ccc(F)cc1-c1cccc(OC)n1)C2` [Compound 81, (R)-2-Amino-4-ethyl-7-[4-fluoro-2-(6-methoxy-pyridin-2-yl)-phenyl]-7,8-dihydro-6H-pyrido[4,3-d]pyrimidin-5-one] had an IC50 of under 10 µM.
On the same count and under the same terms, the figure for `CCc1nc(N)nc2c1C(=O)N[C@@H](c1ccc(F)cc1-c1csc(OC)n1)C2` [Compound 84, (R)-2-Amino-4-ethyl-7-[4-fluoro-2-(2-methoxy-thiazol-4-yl)-pbenyl]-7,8-dihydro-6H-pyrido[4,3-d]pyrimidin-5-one] is under 10 µM; for `COc1cncc(-c2ccccc2[C@H]2Cc3nc(N)ncc3C(=O)N2)n1` [Compound 42, (R)-2-Amino-7-[2-(6-methoxy-pyrazin-2-yl)-phenyl]-7,8-dihydro-6H-pyrido[4,3-d]pyrimidin-5-one] it is under 10 µM; for `CCOc1cncc(-c2cc(F)ccc2[C@H]2Cc3nc(N)nc(CC)c3C(=O)N2)n1` [Compound 86, (R)-2-Amino-7-[2-(6-ethoxy-pyrazin-2-yl)-4-fluoro-phenyl]-4-ethyl-7,8-dihydro-6H-pyrido[4,3-d]pyrimidin-5-one] it is under 10 µM.

Staying with this experiment, now noted: Table 3; competition with biotinylated radicicol.
In turn, `COc1cncc(-c2cc(F)ccc2C2Cc3nc(N)nc(C)c3C(=O)N2CCN)n1` (stereo not drawn) [Compound 93, 2-Amino-6-(2-amino-ethyl)-7-[4-fluoro-2-(6-methoxy-pyrazin-2-yl)-phenyl]-4-methyl-7,8-dihydro-6H-pyrido[4,3-d]pyrimidin-5-one] yielded an IC50 of under 10 µM.
Consider `COc1cncc(-c2cc(F)ccc2[C@H]2Cc3nc(N)nc(C)c3C(=O)N2CC2CCOCC2)n1` [Compound 131, (R)-2-Amino-7-[4-fluoro-2-(6-methoxy-pyrazin-2-yl)-phenyl]-4-methyl-6-(tetrahydro-pyran-4-ylmethyl)-7,8-dihydro-6H-pyrido[4,3-d]pyrimidin-5-one], for which the IC50 is under 10 µM.
On the same count and under the same terms, the figure for `Nc1ncc2c(n1)C[C@H](c1ccc(F)cc1)NC2=O` [Compound 98, (R)-2-Amino-7-(4-fluoro-phenyl)-7,8-dihydro-6H-pyrido[4,3-d]pyrimidin-5-one] is under 10 µM.
Same read-out and setting: the figure for `Cc1nc(N)nc2c1C(=O)N(CCCN)[C@@H](c1ccc(F)cc1-c1cccnc1F)C2` [Compound 170, (R)-2-Amino-6-(3-amino-propyl)-7-[4-fluoro-2-(2-fluoro-pyridin-3-yl)-phenyl]-4-methyl-7,8-dihydro-6H-pyrido[4,3-d]pyrimidin-5-one] is over 10 µM; for `Cc1nc(N)nc2c1C(=O)N(CCCN)[C@@H](c1ccc(F)cc1-c1cccnc1)C2` [Compound 168, (R)-2-Amino-6-(3-amino-pnlpropyl)-7-(4-fluoro-2-pyridin-3-yl-phenyl)-4-methyl-7,8-dihydro-6H-pyrido[4,3-d]pyrimidin-5-one] it is under 10 µM; for `Cc1nc(N)nc2c1C(=O)N[C@@H](c1ccccc1)C2` [Compound 103, (R)-2-Amino-4-methyl-7-phenyl-7,8-dihydro-6H-pyrido[4,3-d]pyrimidin-5-one] it is under 10 µM.
Same read-out and setting: the figure for `COc1cncc(-c2cc(F)ccc2[C@H]2Cc3nc(N)nc(C)c3C(=O)N2Cc2cccc(Cl)c2)n1` [Compound 115, (R)-2-Amino-6-(3-chloro-benzyl)-7-[4-fluoro-2-(6-methoxy-pyrazin-2-yl)-phenyl]-4-methyl-7,8-dihydro-6H-pyrido[4,3-d]pyrimidin-5-one] is under 10 µM.

The experiment is the same for the next values; noted with them: Table 4; competition with biotinylated radicicol.
For `CCOc1nc(-c2cc(F)ccc2[C@H]2Cc3nc(N)nc(C)c3C(=O)N2)cs1` [Compound 231, (R)-2-Amino-7-[2-(2-ethoxy-thiazol-4-yl)-4-fluoro-phenyl]-4-methyl-7,8-dihydro-6H-pyrido[4,3-d]pyrimidin-5-one], the IC50 was under 10 µM.
Still for that read-out and setting: the figure for `COc1ncc(-c2ccccc2[C@H]2Cc3nc(N)nc(C)c3C(=O)N2)nc1OC` [Compound 189, (R)-2-Amino-7-[2-(5,6-dimethoxy-pyrazin-2-yl)-phenyl]-4-methyl-7,8-dihydro-6H-pyrido[4,3-d]pyrimidin-5-one] is under 10 µM.
Still for that read-out and setting: with `COc1cncc(-c2scnc2[C@H]2Cc3nc(N)nc(C)c3C(=O)N2)n1` [Compound 186, (R)-2-Amino-7-[5-(6-methoxy-pyrazin-2-yl)-thiazol-4-yl]-4-methyl-7,8-dihydro-6H-pyrido[4,3-d]pyrimidin-5-one] the figure was under 10 µM; with `CCOc1cncc(-c2ccccc2[C@H]2Cc3nc(N)nc(C)c3C(=O)N2)n1` [Compound 220, (R)-2-Amino-7-[2-(6-ethoxy-pyrazin-2-yl)-phenyl]-4-methyl-7,8-dihydro-6H-pyrido[4,3-d]pyrimidin-5-one], under 10 µM; with `CCOc1nc(-c2ccccc2[C@H]2Cc3nc(N)nc(C)c3C(=O)N2)cnc1N` [Compound 197, (R)-2-Amino-7-[2-(5-amino-6-ethoxy-pyrazin-2-yl)-phenyl]-4-methyl-7,8-dihydro-6H-pyrido[4,3-d]pyrimidin-5-one], under 10 µM.
On the same count and under the same terms, the figure for `COc1cnc(-c2cc(F)ccc2[C@H]2Cc3nc(N)nc(C)c3C(=O)N2)nc1OC` [Compound 185, (R)-2-Amino-7-[2-(4,5-dimethoxy-pyrimidin-2-yl)-4-fluoro-phenyl]-4-methyl-7,8-dihydro-6H-pyrido[4,3-d]pyrimidin-5-one] is under 10 µM; for `COc1cccc(-c2scnc2[C@@H]2Cc3nc(N)nc(C)c3C(=O)N2)n1` [Compound 232, (S)-2-Amino-7-[5-(6-methoxy-pyridin-2-yl)-thiazol-4-yl]-4-methyl-7,8-dihydro-6H-pyrido[4,3-d]pyrimidin-5-one] it is under 10 µM.
With `CCc1nc(N)nc2c1C(=O)N[C@@H](c1ccc(F)cc1-c1cccc(OC)n1)C2` [Compound 211, (R)-2-Amino-4-ethyl-7-[4-fluoro-2-(6-methoxy-pyridin-2-yl)-phenyl]-7,8-dihydro-6H-pyrido[4,3-d]pyrimidin-5-one], the IC50 is under 10 µM.
On the same count and under the same terms, with `COc1cccc(-c2ccccc2[C@H]2Cc3nc(N)ncc3C(=O)N2)n1` [Compound 206, (R)-2-Amino-7-[2-(6-methoxy-pyridin-2-yl)-phenyl]-7,8-dihydro-6H-pyrido[4,3-d]pyrimidin-5-one] the figure was under 10 µM.
